Values of other authors in patent US8324425B2, “Method for producing bicyclic γ-amino acid derivative” (Daiichi Sankyo Company, Limited, priority 2009, dated 2012).

Tests used:
[1] = according to patients' own evaluation; Non Patent Literature 3
[2] = according to patients' own evaluation; Non Patent Literature 4

SMILES | efficacy in the treatment of postherpetic neuralgia [1] | efficacy in the treatment of painful diabetic neuropathy [2]
NCC1(CC(=O)O)CCCCC1 [gabapentine] | approximately 60% | 
CC(C)C[C@H](CN)CC(=O)O [pregabalin] |  | approximately 50%
